The target in assay [1] is T1, DDR1 (Homo sapiens, UniProt Q08345).
T1 construct: purchased Carna Biosciences
Put plainly: LanthaScreen Europium Kinase Binding assay, DDR1. Conditions: 5 nM DDR1, 20 nM Kinase Tracer 178, 1 h at rt; Ki from IC50 by Cheng-Prusoff; read-out: Ki DDR1. In short, it runs like this:
(§1)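 Compounds were incubated 1 h at rt with 5 nM DDR1 plus 20 nM Kinase Tracer 178, or 5 nM DDR2 plus 10 nM tracer, and 2 nM Eu anti-GST antibody in HEPES pH 7.5 buffer. Read-out was the TR-FRET 665/615 nm ratio. IC50 came from a 4-parameter fit and was converted to Ki by Cheng-Prusoff.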
(Time-resolved FRET reads energy transfer from a long-lived donor to a nearby acceptor.)

Assay [2] deals with T2, DDR2 (Homo sapiens, UniProt Q16832).
T2 construct: purchased Life Technologies
T2 sequence (Q16832 22-855): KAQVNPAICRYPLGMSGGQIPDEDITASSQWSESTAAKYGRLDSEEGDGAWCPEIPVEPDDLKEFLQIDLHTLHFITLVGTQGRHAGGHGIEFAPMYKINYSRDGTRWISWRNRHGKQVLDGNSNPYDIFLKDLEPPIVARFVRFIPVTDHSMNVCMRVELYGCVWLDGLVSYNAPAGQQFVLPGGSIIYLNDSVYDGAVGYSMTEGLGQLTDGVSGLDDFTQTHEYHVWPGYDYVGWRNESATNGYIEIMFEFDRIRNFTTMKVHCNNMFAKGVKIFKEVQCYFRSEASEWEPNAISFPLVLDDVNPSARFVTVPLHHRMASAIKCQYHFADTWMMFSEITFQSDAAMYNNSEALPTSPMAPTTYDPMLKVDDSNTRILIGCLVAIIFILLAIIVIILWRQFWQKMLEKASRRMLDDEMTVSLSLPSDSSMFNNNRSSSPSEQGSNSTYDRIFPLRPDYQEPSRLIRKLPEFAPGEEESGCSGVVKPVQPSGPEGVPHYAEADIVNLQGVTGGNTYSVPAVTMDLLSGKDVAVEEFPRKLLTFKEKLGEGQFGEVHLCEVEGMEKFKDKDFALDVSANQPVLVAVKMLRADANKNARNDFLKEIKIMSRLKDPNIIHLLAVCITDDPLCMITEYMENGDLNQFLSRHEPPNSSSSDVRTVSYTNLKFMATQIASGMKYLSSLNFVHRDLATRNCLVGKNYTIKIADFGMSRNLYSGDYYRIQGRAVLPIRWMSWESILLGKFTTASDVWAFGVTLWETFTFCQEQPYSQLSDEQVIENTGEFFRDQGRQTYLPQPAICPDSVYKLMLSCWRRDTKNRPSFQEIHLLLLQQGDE
Put plainly: LanthaScreen Europium Kinase Binding assay, DDR2. Conditions: 5 nM DDR2, 10 nM Kinase Tracer 178, 1 h at rt; Ki from IC50 by Cheng-Prusoff; read-out: Ki DDR2. The procedure, abridged:
as §1

A value given as a limit tells only on which side of the number the result lay.

T1 sequence (Q08345 19-913): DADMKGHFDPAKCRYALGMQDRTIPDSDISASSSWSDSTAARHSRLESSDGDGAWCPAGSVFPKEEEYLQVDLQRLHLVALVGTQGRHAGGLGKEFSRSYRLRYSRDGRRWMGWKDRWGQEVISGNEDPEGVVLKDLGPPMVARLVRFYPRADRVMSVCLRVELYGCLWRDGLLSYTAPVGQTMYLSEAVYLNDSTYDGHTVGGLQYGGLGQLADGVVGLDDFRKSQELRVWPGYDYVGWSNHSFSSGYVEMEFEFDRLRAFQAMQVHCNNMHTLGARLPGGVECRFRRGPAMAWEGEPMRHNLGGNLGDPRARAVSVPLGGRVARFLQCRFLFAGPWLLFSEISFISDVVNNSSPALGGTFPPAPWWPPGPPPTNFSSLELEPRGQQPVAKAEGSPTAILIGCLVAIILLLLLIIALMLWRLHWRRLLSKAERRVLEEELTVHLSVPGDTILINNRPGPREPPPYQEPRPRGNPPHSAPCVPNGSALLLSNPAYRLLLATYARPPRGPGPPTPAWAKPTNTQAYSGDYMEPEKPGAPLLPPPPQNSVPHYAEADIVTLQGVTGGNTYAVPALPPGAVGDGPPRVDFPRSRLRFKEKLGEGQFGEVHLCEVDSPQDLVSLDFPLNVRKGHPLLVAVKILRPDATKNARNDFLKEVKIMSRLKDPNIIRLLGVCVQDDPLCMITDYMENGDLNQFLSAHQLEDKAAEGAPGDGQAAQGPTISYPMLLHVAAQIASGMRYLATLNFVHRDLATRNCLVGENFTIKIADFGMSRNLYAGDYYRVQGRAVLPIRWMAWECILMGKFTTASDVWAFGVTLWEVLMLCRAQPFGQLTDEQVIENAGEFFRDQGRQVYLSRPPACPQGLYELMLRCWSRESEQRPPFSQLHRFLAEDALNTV

Turning to `Cc1ccc(C(=O)Nc2cncc(C(F)(F)F)c2)cc1[C@@H]1CCN(c2cccnc2N)C1` [Example 42, (S)-3-(1-(2-aminopyridin-3-yl)pyrrolidin-3-yl)-4-methyl-N-(5-(trifluoromethyl)pyridin-3-yl)benzamide], the Ki in assay [1] and in assay [2] was < 5 nM in each case.
`CC(=O)Nc1cncc(OC2CN(c3cc(C(=O)Nc4cncc(C(F)(F)F)c4)ccc3C)C2)c1` [Example 133, 3-(3-((5-acetamidopyridin-3-yl)oxy)azetidin-1-yl)-4-methyl-N-(5-(trifluoromethyl)pyridin-3-yl)benzamide]: the Ki in assay [1] and in assay [2] was < 5 nM throughout.
As to `Cc1ccc(C(=O)Nc2cncc(C(F)(F)F)c2)cc1[C@@H]1CCN(c2cc(C(N)=O)ncn2)C1` [Example 54, (S)-6-(3-(2-methyl-5-((5-(trifluoromethyl)pyridin-3-yl)carbamoyl)phenyl)pyrrolidin-1-yl)pyrimidine-4-carboxamide], the Ki in assay [1] and in assay [2] was < 5 nM throughout.

As a reminder, the Ki is the equilibrium dissociation constant of an inhibitor or competing ligand from its target.

For the origin of these results see patent US20260242353A1, “HETEROARYL DERIVATIVES AS DDRs INHIBITORS” (CHIESI FARMACEUTICI S.P.A., priority 2022, published 2026).
